The values below come from patent EP3952873B1 (priority 2019, dated 2020).

“Also recorded” adds a separate entry of the source.

As usually defined, the Ki is the dissociation constant of the complex between target and ligand, obtained from inhibition or displacement. A lower Ki goes with higher affinity. As a reminder, the half-life is the time needed for the level to fall by half in the phase considered. Read a high half-life as slow loss.

Data set [1] is classed as in vitro ADME, mouse. As to conditions: plasma and liver microsomes; converted to parent JON-11 instantly. Here is the method:
(§1) Metabolic stability analysis was performed on a Bruker Avance Ultra High Performance Liquid Chromatography (UHPLC) (Bruker Daltonik, Bremen, Germany) equipped with a CTC-PAL-xt autosampler with cooled sample compartments (10 °C) and a column oven held at 40 °C. The UHPLC eluate was directed to a Bruker Evoq Elite triple quad-ropole MS equipped with a heated electrospray ionization source operated in positive ionization mode. Separation of 15 µL sample was obtained using a Phenomenex (Phenomenex, Torrance, CA, USA) Kinetex XB-C18 column (50 mm × 2.1 mm i.d., 1.7 µm particle size) equipped with a guard column. The analytes were separated using a solvent system consisting of water/acetonitrile (95:5, v/v) (eluent A) and water/acetonitrile (5:95, v/v) (eluent B); both acidified with 0.1% formic acid. The eluent flow rate was maintained at 0.4 mL/min with the following gradient elution profile: 0 min: 0% B; 5 min: 100% B; 6 min: 100% B, followed by three min equilibration at 0% B. Two ion transitions were monitored for all analytes and internal standard.
The mouse liver microsome assay was performed by transferring 25 µL of a 20 µM solution of the test compound (0.5% DMSO), dissolved in potassium phosphate monobasic buffer (pH 7.4) containing 3 mM MgCl2, to 9 wells in a microtiter plate. To each well, […] of a 0.5 mg/mL mouse liver (Sigma Aldrich) in buffer was added, and the microtiter plate were pre-incubated for 5 min at 37 °C in a plate shaker at 600 rpm. After pre-incubation, 50 µL 37 °C NADPH regenerating system, consisting of 2 mM NADP+, 10mM glucose-6-phosphate, and 2 U/mL glucose-6-phosphate dehydrogenase dissolved in buffer, was added to start the assay. In triplicates, immediately after adding the NADPH solution, 75 µL was transferred to an Eppendorf tube, containing […] ice-cold acetonitrile with 400 ng/mL internal standard (7). Similarly, samples were prepared after 30 min and 60 min incubation at 37 °C. The samples were vortexed for 30 seconds and centrifuged at 16,000 × g for 10 minutes before analyzing the supernatant. The individual analyte responses were normalized to the internal standard. Diazepam was used as positive control.
The mouse […] assay was performed by transferring 75 µL of a 10 µM solution of the test compound (0.5% DMSO), dissolved in PBS buffer (pH 7.4), to 9 wells in a microtiter plate. To each well, 75 µL mouse plasma, harvested from in-house mice into K2-EDTA tubes and centrifuged at 1,600 × g, was added. […]
(§2) The metabolic stabilities of JON-11 and the prodrugs 1a, 8-12, 19 and 20 were determined in vitro in rat plasma and rat liver microsomes. […] The corresponding loss of prodrug compounds and formation of parent drug JON-11 was determined by UHPLC-MS.
(Liver microsomes are a subcellular fraction often used to study metabolism.)

Data set [2] has as its system GHB binding sites i.e. CaMK2a. The note with it: previously published; cited from earlier work.
For data set [3], the target named is T1, GHB high-affinity binding site/CaMK2a (Rattus norvegicus, UniProt P11275).
T1 construct: rat (Sprague-Dawley) cortical synaptic membranes (P2 synaptosomes) were prepared; from tissue; host or cells: rat (Sprague-Dawley) cortical synaptic membranes (P2 synaptosomes)
The data set can be described thus: Rat brain membrane [3H]NCS-382 binding assay. The note with it: for Ki: 16 nM [3H]NCS-382, rat cortical synaptic membranes, pH 6.0, 0-4 °C. Here is the method:
According to previously published protocols, rat (Sprague-Dawley) cortical synaptic membranes (P2 synaptosomes) were prepared and stored at -20 °C until the day of assay (Wellendorph et al., 2005). Membranes were then washed three times with binding buffer (50 mM potassium phosphate buffer pH 6.0). The binding protocol was performed in 96-well microplates. In brief, compounds were incubated with 16 nM [^3H]NCS-382 radioligand and membranes for 60 min at 0-4 °C, filtered through GF/C filter plates (PerkinElmer) using a 96-well harvester (Packard), rapidly washed three times with ice-cold binding buffer, and filter plates dried. CPM values were determined using liquid scintillation counting in a TopCount NXT Microplate Scintillation & Luminescence Counter (PerkinElmer). Curves were generated using non-linear regression (GraphPad Prism 7, GraphPad Prism Software, San Diego, CA, USA).
JON-11, related analogues, and pro-JON-11(10) were tested in the [^3H]NCS-382 binding assay (Wellendorph et al., 2005).

The next data set can be described thus: in vivo. As to conditions: C57BL/6JRj, mouse, ip, male mice, dose 10 mg/kg i.p., 30 min, read-out: B/P ratio. The arrangement: species or system mice. How it is done:
To evaluate the ability of pro-JON-11 (10) and JON-11 to penetrate the blood-brain barrier, a brain-to-plasma distribution ratio (B/P ratio) was obtained. All subjects were male C57BL/6JRj mice (24-26 g, Janvier Labs, France) housed in groups of three-four with ad libitum access to food and water. The mice were maintained under diurnal conditions (12-h light/dark cycle with lights on at 7 AM) in a temperature (22±1 °C) and humidity-controlled room (50±10%). Ethical permission for the procedures used in this in vivo study was granted by the Danish Animal Experiments Inspectorate.
Compounds were dissolved in PEG-400 (Sigma) at 20% of the final required volume. The final volume was then made up by 10% (w/v) hydroxypropyl-beta-cyclodextrin (Sigma Aldrich) in sterile saline. The solution was sonicated for 5 min. The JON-11 solution was pH-adjusted to 7.4 with 0.2% 2M NaOH.
Both compounds were injected i.p. at a dose of 10 mg/kg (n=3 for each compound). […] After 30 min, the animals were sacrificed by decapitation, trunk blood was collected in EDTA-coated tubes and the brain was gently removed. Blood and tissues were temporarily stored on ice until plasma and brain homogenate preparation. Blood plasma was separated from cells by centrifugation for 10 min at 1,500 x g at 4 °C and plasma harvested. […]
Plasma and brain exposure of JON-11 and pro-JON-11 were evaluated in male mice. […]

The nature of data set [4]: Mouse plasma assay (metabolic stability). The data set is classed as in vitro ADME. The note with it: rat plasma as printed. How it is done:
as §1, with “standard. […]” for “standard.”
as §2

The format of data set [5] is in vitro ADME, mouse. As to conditions: rat liver microsomes as printed. How it is done:
as §1, with “standard. […]” for “standard.”
as §2

Data set [6] addresses T2, LAT-1 (Homo sapiens, UniProt Q01650).
T2 construct: endogenous in cells; host or cells: HEK293T
The data set can be described thus: LAT-1 relative exchange efflux of [3H]leucine in HEK293T cells. The note with it: HEK293T cells endogenously expressing LAT-1. The class given is cell-based. An excerpt:
(§3) To test selected prodrugs for substrate activity at LAT-1, we characterised the uptake and efflux of [^3H]leucine in the presence of compounds. For this purpose we used HEK293T cells endogenously expressing a functionally competent LAT-1, and performed assays according to Chien et al., 2018 to measure A) uptake and B) relative exchange efflux rate (L-leucine as control).

In data set [7] the target is T2, LAT-1. The data set can be described thus: LAT-1 [3H]leucine uptake in HEK293T cells. The class given is cell-based. As to conditions: HEK293T cells endogenously expressing LAT-1.
Description: as §3

T1 sequence (P11275 whole entry): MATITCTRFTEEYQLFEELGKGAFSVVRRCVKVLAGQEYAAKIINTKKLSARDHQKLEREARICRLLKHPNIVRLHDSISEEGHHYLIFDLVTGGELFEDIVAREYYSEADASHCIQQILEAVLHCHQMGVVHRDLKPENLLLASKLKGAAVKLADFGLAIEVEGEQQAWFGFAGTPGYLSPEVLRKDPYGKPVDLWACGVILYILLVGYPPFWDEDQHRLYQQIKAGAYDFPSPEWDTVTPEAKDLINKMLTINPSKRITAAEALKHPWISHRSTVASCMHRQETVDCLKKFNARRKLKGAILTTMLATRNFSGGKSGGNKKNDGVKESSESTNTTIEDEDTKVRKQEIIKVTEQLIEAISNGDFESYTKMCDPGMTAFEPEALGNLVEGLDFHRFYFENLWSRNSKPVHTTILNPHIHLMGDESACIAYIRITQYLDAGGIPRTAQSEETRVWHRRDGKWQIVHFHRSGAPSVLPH
T2 sequence (Q01650 whole entry): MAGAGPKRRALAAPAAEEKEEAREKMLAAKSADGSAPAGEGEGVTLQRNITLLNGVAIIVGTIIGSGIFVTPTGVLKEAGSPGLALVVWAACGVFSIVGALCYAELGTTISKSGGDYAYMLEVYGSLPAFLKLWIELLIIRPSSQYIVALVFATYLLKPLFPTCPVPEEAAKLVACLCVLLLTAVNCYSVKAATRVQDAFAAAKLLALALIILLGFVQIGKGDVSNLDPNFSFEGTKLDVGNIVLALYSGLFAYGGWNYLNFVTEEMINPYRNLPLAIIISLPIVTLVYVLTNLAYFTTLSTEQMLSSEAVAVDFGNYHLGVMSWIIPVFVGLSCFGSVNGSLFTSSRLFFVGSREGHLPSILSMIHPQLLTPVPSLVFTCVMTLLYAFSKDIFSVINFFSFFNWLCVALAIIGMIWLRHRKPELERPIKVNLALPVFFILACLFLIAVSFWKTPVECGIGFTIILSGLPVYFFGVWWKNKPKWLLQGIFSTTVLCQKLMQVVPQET
T2 sequence (P08195 102-630 partner): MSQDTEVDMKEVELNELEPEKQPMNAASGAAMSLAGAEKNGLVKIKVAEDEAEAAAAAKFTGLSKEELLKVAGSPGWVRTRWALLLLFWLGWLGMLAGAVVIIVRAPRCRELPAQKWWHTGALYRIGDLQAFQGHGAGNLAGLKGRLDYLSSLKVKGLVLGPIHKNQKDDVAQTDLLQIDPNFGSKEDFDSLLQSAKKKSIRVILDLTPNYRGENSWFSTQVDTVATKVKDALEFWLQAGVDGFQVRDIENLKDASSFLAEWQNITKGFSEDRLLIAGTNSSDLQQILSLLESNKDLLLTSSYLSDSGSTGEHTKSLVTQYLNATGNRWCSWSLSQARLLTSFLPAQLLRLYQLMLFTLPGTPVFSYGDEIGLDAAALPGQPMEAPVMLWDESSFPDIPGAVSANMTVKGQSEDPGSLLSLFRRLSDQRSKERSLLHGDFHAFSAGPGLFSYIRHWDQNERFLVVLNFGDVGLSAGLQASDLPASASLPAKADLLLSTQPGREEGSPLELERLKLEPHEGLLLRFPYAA

With `CCOC(=O)Cc1cn2nc(-c3ccc(Cl)cc3)ccc2n1` [1a, ethyl 2-(6-(4-chlorophenyl)imidazo[1,2-b]pyridazin-2-yl)acetate], the “chemical/metabolic stability of prodrug” value in data set [1] was “highly chemical/metabolic unstable”.

Consider `O=C(O)CCC(O)c1ccc(OCc2ccccc2)cc1` (stereo not shown) [BnOPh-GHB], for which the “affinity relative to GHB” value in data set [2] was 39 times.

For the compound `O=C(O)C1=CC(O)CC1` (stereo not shown) [HOCPCA, 3-hydroxycyclopent-1-enecarboxylic acid], in data set [2], the “affinity relative to GHB” value is listed as 27 times.

In data set [3], `O=C(O)Cc1cn2nc(-c3cccc(Cl)c3)ccc2n1` [compound 2, 2-(6-(3-Chlorophenyl)imidazo[1,2-b]pyridazin-2-yl)acetic acid] showed a Ki of 230 nM.

In data set [3], `O=C(O)Cc1cn2nc(-c3cccc(OCc4ccccc4)c3)ccc2n1` [compound 3] returned an inhibition constant (Ki) of 510 nM.

`O=C(O)Cc1cn2nc(-c3ccc(OCc4ccccc4)cc3)ccc2n1` [compound 4, 2-(6-(4-(benzyloxy)phenyl)imidazo[1,2-b]pyridazin-2-yl)acetic acid] gave a Ki in data set [3] of 2200 nM.

In turn, `COc1cccc(-c2ccc3nc(CC(=O)O)cn3n2)c1` [compound 5, 2-(6-(3-Methoxyphenyl)imidazo[1,2-b]pyridazin-2-yl)acetic acid] displayed a Ki in data set [3] of 440 nM.

The compound `COc1ccc(-c2ccc3nc(CC(=O)O)cn3n2)cc1` [compound 6, 2-(6-(4-Methoxyphenyl)imidazo[1,2-b]pyridazin-2-yl)acetic acid] showed an inhibition constant (Ki) in data set [3] of 830 nM.

In turn, `O=C(O)Cc1cn2nc(-c3ccc(Cl)c(Cl)c3)ccc2n1` [compound 7, 2-(6-(3,4-Dichlorophenyl)imidazo[1,2-b]pyridazin-2-yl)acetic acid] showed an inhibition constant Ki in data set [3] of 190 nM. Compared with the last compound, the Ki is about 4.4-fold lower.

As to `CC(=O)OCOC(=O)Cc1cn2nc(-c3ccc(Cl)cc3)ccc2n1` [compound 8, Acetoxymethyl 2-(6-(4-chlorophenyl)imidazo[1,2-b]pyridazin-2-yl)acetate], the “chemical/metabolic stability of prodrug” value in data set [1] is given as “highly chemical/metabolic unstable”.

With `CC(C)(C)C(=O)OCOC(=O)Cc1cn2nc(-c3ccc(Cl)cc3)ccc2n1` [compound 9, (2-(6-(4-Chlorophenyl)imidazo[1,2-b]pyridazin-2-yl)acetoxy)methyl pivalate], the “chemical/metabolic stability of prodrug” value in data set [1] is “highly chemical/metabolic unstable”.

`CC(C)(C)OC(=O)Cc1cn2nc(-c3ccc(Cl)cc3)ccc2n1` [compound 10, tert.Butyl 2-(6-(4-chlorophenyl)imidazo[1,2-b]pyridazin-2-yl)acetate]: the Kp at 30 min in “in vivo” came to 2.24. The “displacement of radioligand binding” value in data set [3] ([3H]NCS-382, concentrations up to 10 µM) is listed as “failed to displace radioligand binding”. In data set [4] (pH 7.4), the half-life at 5 µM was approximately 1 h. The stability in plasma entry in data set [4] is reported as “fair stability”. In data set [5], the “stability in liver microsomes” value was “high stability”.

On to `N[C@@H](Cc1cccc(NC(=O)Cc2cn3nc(-c4ccc(Cl)cc4)ccc3n2)c1)C(=O)O` [compound 11, (S)-2-amino-3-(3-(2-(6-(4-chlorophenyl)imidazo[1,2-b]pyridazin-2-yl)acetamido)phenyl)propanoic acid], for which the “exchange for [3H]leucine (relative exchange efflux)” value on LAT-1 [6] was “cannot be exchanged”. Moreover, the “competition with [3H]leucine uptake at LAT-1” value on LAT-1 [7] is “LAT1 inhibitor; also recorded: competes”.

Consider `N[C@@H](Cc1ccc(NC(=O)Cc2cn3nc(-c4ccc(Cl)cc4)ccc3n2)cc1)C(=O)O` [compound 12, (S)-2-amino-3-(4-(2-(6-(4-chlorophenyl)imidazo[1,2-b]pyridazin-2-yl)acetamido)phenyl)propanoic acid], for which, at LAT-1 [7], the “competition with [3H]leucine uptake at LAT-1” value is “not”.
